Results taken from patent publication US5424426A, “Dithiolanylglycine-containing HIV protease inhibitors of the hydroxyethylene isostere type” (Bayer Aktiengesellschaft, priority 1992, dated 1995).
Counter-ions that a name gives are not always drawn.

Experiments:
HIV protease (HIV-1) = biological target: T1, HIV protease (HIV-1) (Human immunodeficiency virus type 1 group M subtype B, UniProt P04585); assay: HIV-specific protease enzyme test (RP-HPLC analysis of synthetic peptide cleavage); format: biochemical; settings: purified HIV protease, synthetic Gag cleavage-site peptide
T1 construct: purified HIV protease was incubated with synthetic peptide
Description: The results of the examples listed below were determined by the HIV test system described in the following references [cf. Hansen, J., Billich, S., Schulze, T., Sukrow, S. and Molling, K. (1988), EMBO Journal, Vol. 7, No. 6, pp. 1785-1791]: purified HIV protease was incubated with synthetic peptide which imitates a cleavage site in the Gag precursor protein and represents an in vivo cleavage site of the HIV protease. The resulting cleavage products of the synthetic peptide were analysed by means of reverse phase high performance liquid chromatography (RP-HPLC). The IC50 values given relate to the substance concentration which causes a 50% strength inhibition of the protease activity under the above-mentioned test conditions.

HIV [1] = assay: HIV infection in cell culture, syncytia formation in PBLs; format: cell-based; settings: HIV-infected normal human blood lymphocytes (PBLs); 50% suppression of virus-induced syncytia
Description: (§1) The HIV test was carried out with slight modifications by the method of Pauwels et al. [cf. Journal of Virological Methods 20, (1988), 309-321].
Normal human blood lymphocytes (PBLs) were enriched on Ficoll-Hypaque and stimulated in RPMI 1640, 20% foetal calf serum containing phytohaemagglutinin (90 μg/ml) and interleukin-2 (40 U/ml). For infection with the infectious HIV, PBLs were pelleted and the cell pellet was then suspended in 1 ml of HIV virus adsorption solution and incubated for 1 hour at 37° C.
The virus adsorption solution was centrifuged and the infected cell pellet taken up in growth medium so that a concentration of 1×10^5 cells per ml was established. The cells infected in such a way were pipetted at 1×10^4 cells/well into the wells of 96-well microtitre plates.
The first vertical row of the microtitre plate contained only growth medium and cells which had not been infected, but otherwise had been treated exactly as described above (cell control). The second vertical row of the microtitre plate contained only HIV-infected cells (virus control) in growth medium. The other wells contained the compounds according to the invention in different concentrations, starting from the wells of the 3rd vertical row of the microtitre plate, from which the test substances were diluted 2^10 times in steps of two.
The test batches were incubated at 37° C. until in the untreated virus control the syncytia formation typical of HIV occurred (between day 3 and 6 after infection), which was then assessed by microscopy.
(§2) The IC50 values were determined as the concentrations of the […] at which 50% (about 10 syncytia) of the virus-induced syncytia were suppressed by the treatment with the compound according to the invention.

HIV [2] = assay: HIV infection in cell culture, H-9 cells; format: cell-based; settings: HIV-infected H-9 cells
Description: as §1, §2

Molecule | IC50 (HIV protease (HIV-1)) [nM] | IC50 (HIV [1]) [nM] | IC50 (HIV [2]) [nM]
1-{(2R,4S,5S)-5-[(2S)-3-(tert-Butylsulphonyl)-2-(1-naphthylmethyl)propanoyl]-(2R)-N-(tert-butoxycarbonyl)-2-amino-2-[2-(1,3-dithiolan-2-yl)ethanoyl]amino-6-cyclohexyl-4-hydroxy-2-(1-methyl)ethyl-hexanoyl}-S-isoleucinyl-2-pyridylamide [Example 8] | 1.2 to 9 | 1000 | 
CC[C@H](C)[C@H](NC(=O)[C@H](Cc1ccccc1)C[C@H](O)[C@H](CC1CCCCC1)NC(=O)[C@@H](NC(=O)OC(C)(C)C)C1SCCS1)C(=O)Nc1ccccn1 [Example 3, 1-{(2R,4S,5S)-5-[(2R)-N-(tert-Butoxycarbonyl)-2-amino-2-[2-(1,3-dithiolan-2-yl)]ethanoyl]amino-6-cyclohexyl-4-hydroxy-2-(phenyl)methyl-hexanoyl}-S-isoleucinyl-2-pyridylamide] | 13 to 80 | 1000 | 
1-{(2R,S,4S,5S) -5-[(2R)-N-(tert-Butoxycarbonyl)-2-amino-2-[2-(1,3-dithiolan-2-yl)]ethanoyl]amino-6-cyclohexyl-4-hydroxy-2-(1-methyl)ethyl-hexanoyl}-S-isoleucinyl2-pyridylamide [Example 1] | 1.4 to 9 | > 1000 | 
CC[C@H](C)[C@H](NC(=O)C(C[C@H](O)[C@H](CC1CCCCC1)NC(=O)[C@@H](N)C1SCCS1)C(C)C)C(=O)Nc1ccccn1 (stereo partly drawn) [Example 2, 1-{(2R,S;4S,5S)-5-[(2R)-2-Amino-2-[2-(1,3-dithiolan-2-yl)]ethanoyl]-amino-6-cyclohexyl-4-hydroxy-2-(1-methyl)ethyl-hexanoyl}-S-isoleucinyl-2-pyridylamide dihydrochloride] | 1.3 to 9 | 10000 | 
CC[C@H](C)[C@H](NC(=O)[C@@H](Cc1ccccc1)C[C@H](O)[C@H](CC1CCCCC1)NC(=O)[C@@H](NC(=O)OC(C)(C)C)C1SCCS1)C(=O)Nc1ccccn1 [Example 4, 1-{(2S,4S,5S)-5-[(2R)-N-(tert-Butoxycarbonyl)-2-amino-2-[2-(1,3-dithiolan-2-yl)]ethanoyl]amino-6-cyclohexyl-4-hydroxy-2-(phenyl)methyl-hexanoyl}-S-isoleucinyl2-pyridylamide] | 16 to 80 | 1000 | 
C=CCC(C[C@H](O)[C@H](CC1CCCCC1)NC(=O)[C@@H](NC(=O)OC(C)(C)C)C1SCCS1)C(=O)N[C@H](C(=O)Nc1ccccn1)[C@@H](C)CC (stereo partly drawn) [Example 5, 1-{(2R,S,4S,5S)-5-[(2R)-N-(tert-Butoxycarbonyl)-2-amino-2-[2-(1,3-dithiolan-2-yl)]ethanoyl]amino-6-cyclohexyl-4-hydroxy-2-(2-propenyl)-hexanoyl}-S-isoleucinyl-2-pyridylamide] | 1.4 to 9 | 400 | 
1-}(2S,4S,5S)-5-[(2S)-3-(tert-Butylsulphonyl)-2-(1-naphthylmethyl)propanoyl]-(2R)-N-(tert-butoxycarbonyl)-2-amino-2-[2-(1,3-dithiolan-2-yl)]ethanoyl]amino-6-cyclohexyl-4-hydroxy-2-(1-methyl)ethyl-hexanoyl}-S-isoleucinyl-2-pyridylamide [Example 9] | 1 to 9 | 40 | 11
